Experimental data: patent publication US20020106347A1, “Cytokines and their use in treatment and/or prophylaxis of breast cancer” (priority 1995, published 2002)
pKd: −log10 of the molar value. Entries after “also recorded” stand apart in the source; their conditions may differ.

Assays:
[1] = system: MCF-7 cells; experiment: Proliferation of MCF-7 cells in monolayer (liquid) culture, viable cell count; format: cell-based, human; settings: for mean inhibition of cell proliferation: MCF-7, 7 days exposure, LIF 1000 U/ml, IL-6 100 ng/ml, OSM 10 ng/ml, IL-11 100 ng/ml, vs untreated control; for effect on cell proliferation (in words): MCF-7 / MCF-7M, up to 1 week culture
Procedure: FIGS. 2A, B and C are graphical representations of MCF-7M cells in liquid culture. 10^4 MCF-7M cells were cultured in 500 μl RPMI/10% bovine calf serum (BCS) (v/v) containing the indicated concentration of each of the growth factors (OSM or LIF). After 7 days culture viable cells were counted using a hemacytometer. Cell numbers reported here are the result of one experiment, each performed in triplicate.
FIG. 7 is a graphical representation showing inhibition of proliferation of MCF-7 cells by Oncostatin M (OSM). 10^4 MCF-7 cells were cultured in 500 μl RPMI/10% (v/v) BCS with the indicated concentrations of OSM. At 2, 4 and 6 days, viable cells were counted using a hemacytometer. Results are from 3 experiments, each performed in triplicate.
FIG. 8 is a graphical representation showing that MCF-7 cells are inhibited in a dose-dependent fashion by Oncostatin M (OSM). 10^4 MCF-7 cells were cultured in 500 μl RPMI/10% (v/v) BCS with the indicated concentrations of OSM. After 7 days viable cells were counted, and cell number expressed as a percentage of the corresponding untreated control value.
(§1) FIG. 16 is a graphical representation showing inhibition of MCF-7 cells after 7 days in suspension culture. 10^4MCF-7 cells were cultured in 500 μl RPMI/10% (v/v) BCS with the indicated growth factor. After 7 days viable cells were counted using a hemacytometer. Results are from 9 experiments, each performed in triplicate.
(§2) Proliferation of the cell lines was measured in monolayer culture in 24 well Costar cluster plates. Cells were plated at an initial density of 10 000 cells/ml and cultured in 500 μl RPMI-1640 supplemented with 10% (v/v) (v/v) BCS and with each growth factor as indicated (LIF, 1000 U/ml; IL-6, 100 ng/ml; OSM, 10 ng/ml; CNTF, 10 ng/ml; IL-11, 100 ng/ml). These concentrations are maximally active in other systems (Nandurkar et al., 1996; Hilton et al., 1994; Zhang et al., 1994; Tanigawa et al., 1995). After 7 or 10 days at 37° C. in a fully humidified atmosphere containing 10% (v/v) CO2 in air, cells were trypsinised and counted using a haemocytometer and an inverted microscope. Cell viability was assessed using eosin exclusion. Results were expressed as a percentage of the corresponding untreated control value for that experiment.

[2] = system: BT-549 cells; experiment: Proliferation of BT-549 cells in culture, viable cell count; format: cell-based, human; settings: for effect on cell proliferation (in words): BT-549
Procedure: FIGS 5A and B are graphical representations of BT-549 cells in liquid culture. 10^4 BT-549 cells were cultured in 500 μl RPMI/10% (v/v) BCS containing the relevant concentration of each of the growth factors (OSM, IL-11 and IL-6). After 10 days, culture viable cells were counted using a hemacytometer. Cell numbers reported here in the two graphs are the results of 1 experiment performed in triplicate.
FIG. 18 is a graphical representation showing BT-549 cells after 10 days in suspension culture. 10^4BT-549 cells were cultured in 500 μl RPMI/10% (v/v) BCS with the indicated growth factor. After 10 days culture viable cells were counted using a hemacytometer. Results are from 6 experiments, each performed in triplicate.
as §2

[3] = system: MDA-MB-231 cells; experiment: Proliferation of MDA-MB-231 cells in culture, viable cell count; format: cell-based, human
Procedure: as §1, with “19” for “16”, “MDA-MB-231” for “inhibition of MCF-7”, “10^4MDA-MB-231” for “10^4MCF-7”, “8” for “9”
as §2

[4] = system: T47D; experiment: Receptor binding of radioiodinated ligand to T-47D cells; set-up: species or system human; settings: 125I-ligand, room temperature 60 min
Procedure: (§3) Receptor binding assays were performed using radioiodinated LIF (^125I-LIF) and OSM (^125I-OSM). The radioiodination of LIF and OSM and binding assays were essentially performed as previously described (Hilton et al., 1991; Hilton and Nicola, 1992). Briefly, 50 μl aliquots containing 1×10^7 cells, suspended in RPMI-1640 medium containing 10% (v/v) BCS, were placed in Falcon tubes with 40 μl of the respective radioiodinated ligand at 1×10^5 cpm per 40 μl, with or without greater than a 40-fold excess of unlabelled ligand. Incubation was carried out at room temperature for 60 min and cells were resuspended and layered over 180 μl of (v/v) BCS. Cell associated and free radioiodinated ligand were separated by centrifugation. The pellet and supernatant were subsequently counted in a γ-counter. Specific binding was estimated by subtraction of non specific binding from binding with ^125I-ligand (total binding). Number of cell surface receptors and dissociation constant were calculated by Scatchard analysis.

[5] = system: MDA-MB-231 cell line; experiment: Receptor binding of radioiodinated ligand to MDA-MB-231 cells, Scatchard analysis; set-up: species or system human; settings: for specific binding(cpm)/10^6 cells: MDA-MB-231, 125I-ligand, room temperature 60 min
Procedure: (§4) FIG. 20 is a graphical representation showing Scatchard analyses of the saturation isotherms of LIF and OSM binding to breast cancer cell lines. Cells were incubated with various concentrations of labelled or unlabelled ligand in the presence or absence of a 10-100 fold excess of unlabelled ligand. After 18 hr on ice, bound and free ligand were separated by centrifugation through bovine calf serum. Bound and free ^125I-ligand was quantitated in a γ-counter and the data was depicted as a Scatchard transformation. Data was normalised for cell number and is shown as binding to 10^6 cells. A) Saturation isotherm of LIF binding to the MCF-7 cell line. […] B) Saturation isotherm of OSM binding to the MDA-MB-231 cell line.
as §3

[6] = system: HBL-100 cell line; experiment: Receptor binding of radioiodinated ligand to HBL-100 cells, Scatchard analysis; set-up: species or system human; settings: for specific binding(cpm)/10^6 cells: HBL-100, 125I-ligand, room temperature 60 min
Procedure: as §4, §3

[7] = system: four breast cancer cell lines; experiment: Proliferation of four breast cancer cell lines in monolayer culture (summary); format: cell-based, human
Procedure: as §2
Experiments were performed to determine whether these morphological changes were associated with alterations in cell growth. The proliferation of four breast cancer cell lines was examined in monolayer cultures containing either IL-6, LIF, OSM, CNTF or IL-11.

| Substance | mean inhibition of cell proliferation [1] [%] | effect on cell proliferation (in words) [1] | effect on cell proliferation (in words) [2] | effect on cellular proliferation (in words) ([3]; MDA-MB-231) | specific binding(cpm)/10^6 cells [4] | specific binding(cpm)/10^6 cells [5] | specific binding(cpm)/10^6 cells [6] | pKd ([6]; HBL-100, Scatchard analysis, read-out: dissociation constant) | cell lines with significant inhibition of cellular proliferation [7] | inhibition of cell proliferation, up to (maximum observed) ([1]; MCF-7, 7 days exposure to OSM, 9 experiments) | mean growth inhibition ([2]; BT-549, 7 days) [%] | growth inhibition, up to (maximum observed) ([2]; BT-549, 10 days) | mean growth inhibition ([2]; BT-549, 10 days) [%] | inhibition of proliferation, up to (maximum observed) ([3]; MDA-MB-231, 7 days) | mean inhibition of proliferation ([3]; MDA-MB-231, 7 days, 8 experiments) [%] | pKd ([5]; MDA-MB-231, Scatchard analysis, read-out: dissociation constant) | reduced binding of radiolabelled ligand compared with the other cell lines ([6]; HBL-100 vs T-47D, MDA-MB-231, MCF-7) |
| --- | --- | --- | --- | --- | --- | --- | --- | --- | --- | --- | --- | --- | --- | --- | --- | --- | --- |
| Leukemia Inhibitory Factor [LIF] | 37 | induced inhibition | failure of BT-549 cells and MDA-MB-231 cells to respond | did not result in significant effects on cellular proliferation | 380 +/− 10 cpm | 450 +/− 120 cpm | 590 +/− 30 cpm | 11.13 | ¼ | – | – | – | – | – | – | – | – |
| oncostatin M [OSM] | 85 | inhibition of cell proliferation; also recorded: inhibition of cellular proliferation | inhibition of cell proliferation | – | 1400 +/− 20 cpm | 2980 +/− 460 cpm | 140 +/− 10 cpm | – | ¾ | up to 94% | 60 | up to 80% | 60 | up to 65% | 54 | 10.04 | approximately 10 fold |
